Assay results reported in paper PMC4975955 (Journal of molecular biology, 2016).

Legend:
TmRibU = TmRibU (Thermotoga maritima, UniProt Q9X1G6, N123A); assay: thermal melting by analytical SEC peak height; format: binding; conditions: NG detergent; difference of mutant to wild-type complex, no apo reference
TmRibUΔCt = TmRibUΔCt (Thermotoga maritima, UniProt Q9X1G6); assay: X-ray crystallography, […] Å; format: binding; conditions: co-purified substrate; extracellular pocket of TM4-6 and Loop1-2
TmRibUΔCt, sequence (Q9X1G6 1-173, stated change not applied): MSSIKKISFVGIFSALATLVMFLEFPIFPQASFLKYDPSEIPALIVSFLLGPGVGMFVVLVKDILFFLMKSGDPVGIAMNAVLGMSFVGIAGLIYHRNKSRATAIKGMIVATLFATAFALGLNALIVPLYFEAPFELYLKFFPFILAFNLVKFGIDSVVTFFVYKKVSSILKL

TmRibU, sequence (Q9X1G6 whole entry N123A): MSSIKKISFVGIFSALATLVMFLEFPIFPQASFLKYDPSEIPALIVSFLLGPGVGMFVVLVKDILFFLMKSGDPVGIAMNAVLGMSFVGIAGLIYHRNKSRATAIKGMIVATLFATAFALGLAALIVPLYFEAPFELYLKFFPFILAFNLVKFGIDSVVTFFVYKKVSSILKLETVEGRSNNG

In the case of `Cc1cc2nc3c(=O)[nH]c(=O)nc-3n(C[C@H](O)[C@H](O)[C@H](O)CO)c2cc1C` [riboflavin], the “decrease of Tm of riboflavin complex vs WT” value (TmRibU) is reported as ~ 23 °C and the “X-ray crystallography, 2.6 Å (also 3.2 and 3.4 Å)” value (TmRibUΔCt) is reported as “we determined the crystal structure of riboflavin-bound TmRibU”.
